Results published in US11208407B2, “Substituted phenyl compounds as indoleamine 2,3-dioxygenase (IDO) inhibitors” (Merck Sharp & Dohme Corp., priority 2017, dated 2021).

Tests used:
IDO1 [1] = target: T1, IDO1 (Homo sapiens, UniProt P14902); experiment: IDO1 Cellular Assay in HeLa Cells Stimulated with IFNγ; format: cell-based; details: IFNγ 100 ng/mL, 300 uM L-tryptophan, about 48 hours, read-out: IDO HeLa Cell Assay, IC50
Protocol: Biological Assays IDO1 Cellular Assay in HeLa Cells Stimulated with IFNγ
HeLa cells were cultured in complete HeLa culture medium (90% EMEM, 10% heat-inactivated fetal bovine serum) and expanded to about 1×10^9 cells. The cells were then collected and frozen down at 1×10^7 cells/vial in 1 mL frozen medium (90% complete HeLa culture medium, 10% DMSO).
Compounds to be tested were serially diluted in ten 3-fold steps in DMSO starting from 10 mM DMSO stocks in Echo low volume plate(s). Compound dilutions or DMSO alone were then dispensed from the dilution plate(s) into Greiner black 384-well assay plate(s) (catalog #781086, 50 nL/well) using an Echo 550 acoustic liquid handler (Labcyte).
Frozen HeLa cells were thawed and transferred into HeLa assay medium (99% complete HeLa culture medium, 1% Pen/Strep) with 20 mL medium/vial of cells. The cells were spun down at 250 g in a table top centrifuge for 5 min and suspended in same volume of HeLa assay medium. The cells were then counted and adjusted to a density of 2×10^5 cells/mL in HeLa assay medium. Sterile L-tryptophan were added to the cells with final concentration of 300 uM L-tryptophan. A small aliquot (2 mL/plate) of HeLa cells were set aside and were not treated with IFNγ, to serve as the Max-E control.
HeLa cells with and without IFNγ were dispensed to the respective wells of 384-well assay plates containing the compounds. The plates were incubated for about 48 hours at a 37° C., 5% CO2 incubator. Afterwards, 12 μL of 0.5 M methyl isonipecotate in dimethyl sulfoxide were added into each well and the plates were sealed and incubated at 37° C. without CO2 overnight. The plates were centrifuged for 1 min at 200×g. The resulting fluorescence was measured in a Spectramax plate reader (Molecular Devices) with a 400 nm excitation filter and a 510 nm emission filter.
The fluorescence intensity of each well was corrected for the background observed in wells with non-IFNγ-treated cells and was expressed as a fraction of the intensity observed in wells of IFNγ-treated cells and DMSO only. Potencies were calculated by linear least squares fit to the four parameter logistic IC50 equation.

IDO1 [2] = target: T1, IDO1; experiment: IDO1 Human Whole Blood Assay; format: cell-based; parameters: Human whole blood was drawn in sodium heparin coated tubes from healthy internal donors; from tissue; host or cells: Human whole blood from healthy donors, stimulated with LPS and IFNγ; details: LPS and IFNγ 100 ng/mL, 18 h, kynurenine by LC/MS/MS
Protocol: IDO1 Human Whole Blood Assay
Compounds to be tested were serially diluted in ten 3-fold steps in DMSO starting from 10 mM. 3 µL of compound dilutions or DMSO alone were then dispensed from the dilution plate into a polypropylene 96-well assay plate containing 97 µL of RPMI medium using an Echo 555 acoustic liquid handler (Labcyte). LPS (lipopolysaccharide) and IFNγ was prepared in RPMI to a 10× of final conc. (1000 ng/mL), final concentration is 100 ng/mL.
Human whole blood was drawn in sodium heparin coated tubes from healthy internal donors. 240 µL of blood was transferred to each of the wells of a v-bottom 96 well plate. 30 µL of compound was transferred from intermediate dilution plate, and incubated for 15 min. 30 μL from stimulants was then transferred to blood and mixed thoroughly. Plate was covered with breathable membrane and incubated at 37° C. for overnight (18 h).
On day 2, isotope labeled standard solutions of kunurenine and tryptophan was made in water at 10× concentration and 30 µL was added to the blood at 3 µM final concentration. The assay plates were centrifuged at 300×G for 10 min with no brake to separate plasma from red blood cells. 60 µL of plasma samples was removed without disturbing red blood cells. Plasma was diluted with RPMI medium in 1:1 ratio and proteins were precipitated out with two volumes of Acetonitrile. The plates were centrifuged at 4000×G for 60 min. 20 µL of supernatant was carefully transferred to a 384 well plate containing 40 µL of 0.1% formic acid in water and analyzed by LC/MS/MS.
LC/MS/MS analyses were performed using Thermo Fisher's LX4-TSQ Quantum Ultra system. This system consists of four Agilent binary high-performance liquid chromatography (HPLC) pumps and a TSQ Quantum Ultra triple quadrupole MS/MS instrument. For each sample, 5 µL were injected onto an Atlantis T3 column (2.1 mm×150 mm, 3 µm particle size) from Waters. The mobile phase gradient pumped at 0.8 mL/min was used to elute the analytes from the column at 25° C. The elution started at 0% B increasing linearly to 25% B at 6.5 min, holding at 25% for 1 min, re-equilibrating to 10 min. Mobile phase A consisted of 0.1% formic acid in water. Mobile phase B consisted of 0.1% of formic acid in acetonitrile. Data was acquired in positive mode using a HESI interface. The operational parameters for the TSQ Quantum Ultra instrument were a spray voltage of 4000 V, capillary temperature of 380° C., vaporizer temperature 400° C., shealth gas 60 arbitrary units, Aux gas 20 arbitrary units, tube lens 85 and collision gas 1.2 mTorr. SRM (selected-reaction monitoring) chromatograms of kynurenine (Q1: 209.2>Q3:94.0) and internal standard (Q1: 215.3>Q3:98.2) were collected for 90 sec. The peak area was integrated by Xcalibur Quan software. The ratios between the kynurenine generated in the reaction and 2D6-Kynurenine spiked-in internal standard were used to generate percentage inhibition and IC50 values. Compounds were titrated and IC50's were calculated by 4 parameter sigmoidal curve fitting formula.

T1 sequence (P14902 whole entry): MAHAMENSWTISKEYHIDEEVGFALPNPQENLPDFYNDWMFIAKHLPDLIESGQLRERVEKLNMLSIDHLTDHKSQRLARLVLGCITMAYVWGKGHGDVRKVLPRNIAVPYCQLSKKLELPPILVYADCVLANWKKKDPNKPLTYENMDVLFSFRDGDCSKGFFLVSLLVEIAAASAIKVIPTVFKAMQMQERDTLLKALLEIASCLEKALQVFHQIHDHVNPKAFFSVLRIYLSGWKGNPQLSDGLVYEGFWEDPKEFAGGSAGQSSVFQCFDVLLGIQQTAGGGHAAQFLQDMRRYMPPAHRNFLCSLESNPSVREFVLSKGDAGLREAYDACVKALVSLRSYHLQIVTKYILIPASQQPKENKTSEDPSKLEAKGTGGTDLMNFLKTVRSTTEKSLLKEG

Row | SMILES | IC50 (IDO1 [1]) [nM] | IC50 (IDO1 [2]) [nM]
1 | O=C(Nc1ccc(C2(c3nc4ncc(C(F)(F)F)cc4[nH]3)CCC2)cc1)c1cccc(Cl)c1 [Example 1, 3-Chloro-N-(4-(1-(6-(trifluoromethyl)-1H-imidazo[4,5-b]pyridin-2-yl)cyclobutyl)phenyl)benzamide] | 1.53 | 74.7
2 | N#Cc1cccc(C(=O)Nc2ccc(C3(c4nc5ncc(C#N)cc5[nH]4)CCC3)cc2)c1 [Example 3, 3-Cyano-N-(4-(1-(6-cyano-1H-imidazo[4,5-b]pyridin-2-yl)cyclobutyl)phenyl)benzamide] | 3.97 | 75.1
3 | O=C(Nc1ccc(C2(c3nc4ncccc4[nH]3)CCC2)cc1)c1cccc(Cl)c1 [Example 5, N-(4-(1-(1H-imidazo[4,5-b]pyridin-2-yl)cyclobutyl)phenyl)-3-chlorobenzamide] | 2.85 | 192
4 | N#Cc1cccc(C(=O)Nc2ccc(C3(c4nc5ccc(C(F)(F)F)cc5[nH]4)CCC3)cc2)c1 [Example 7, 3-cyano-N-(4-{1-[6-(trifluoromethyl)-1H-benzimidazol-2-yl]cyclobutyl}phenyl)benz-amide] | 1.1 | 40.3
5 | N#Cc1cccc(C(=O)Nc2ccc(C3(c4nc5ncc(Cl)cc5[nH]4)CCC3)cc2)c1 [Example 10, N-{4-[1-(6-chloro-1H-imidazo[4,5-b]pyridin-2-yl)cyclobutyl]phenyl}-3-cyanobenzamide] | 3.25 | 132
6 | N#Cc1cccc(C(=O)Nc2ccc(C3(c4nc5ccc(Cl)cc5[nH]4)COC3)cc2)c1 [Example 11, N-(4-(3-(6-chloro-1H-benzo[d]imidazol-2-yl)oxetan-3-yl)phenyl)-3-cyanobenzamide] | 1.56 | 22.9
7 | N#Cc1cccc(C(=O)Nc2ccc(C3(c4nc5cc(Br)cnc5[nH]4)CCC3)cc2F)c1 [Example 16, N-(4-(1-(6-bromo-3H-imidazo[4,5-b]pyridin-2-yl)cyclobutyl)-2-fluorophenyl)-3-cyanobenzamide] | 1.17 | 35.5
8 | N#Cc1cccc(C(=O)Nc2ccc(C3(c4nc5cc(C#N)cnc5[nH]4)CCC3)cc2F)c1 [Example 17, 3-Cyano-N-(4-(1-(6-cyano-3H-imidazo[4,5-b]pyridin-2-yl)cyclobutyl)-2-fluorophenyl)benzamide] | 1.71 | 118
9 | N#Cc1cccc(C(=O)Nc2ccc(C3(c4nc5cc(Cl)cnc5[nH]4)CCC3)cc2F)c1 [Example 18, N-{4-[1-(6-chloro-3H-imidazo[4,5-b]pyridin-2-yl)cyclobutyl]-2-fluorophenyl}-3-cyanobenzamide] | 0.736 | 103
10 | N#Cc1cccc(C(=O)Nc2ccc(C3(c4nc5cc(C(F)(F)F)cnc5[nH]4)CCC3)cc2F)c1 [Example 19, 3-cyano-N-(2-fluoro-4-{1-[6-(trifluoromethyl)-3H-imidazo[4,5-b]pyridin-2-yl]cyclobutyl}phenyl) benzamide] | 0.944 | 43.7
11 | O=C(Nc1ccc(C2(c3nc4ncc(Cl)cc4[nH]3)CC(F)(F)C2)cc1)c1cccc(Cl)c1 [Example 24, 3-Chloro-N-(4-(1-(6-chloro-1H-imidazo[4,5-b]pyridin-2-yl)-3,3-difluorocyclobutyl)phenyl)benzamide] | 1.85 | 120
12 | N#Cc1cccc(C(=O)Nc2ccc(C3(c4nc5ccc(Cl)cc5[nH]4)CC(F)C3)cc2)c1 (stereo not drawn) [Example 25, N-(4-(1-(6-chloro-1H-benzo[d]imidazol-2-yl)-3-fluorocyclobutyl)phenyl)-3-cyanobenzamide] | 1.07 | 47.6
13 | N#Cc1cccc(C(=O)Nc2ccc(C3(c4nc5ccc(C#N)cc5[nH]4)CC(F)C3)cc2)c1 (stereo not drawn) [Example 26, 3-Cyano-N-(4-(1-(6-cyano-1H-benzo[d]imidazol-2-yl)-3-fluorocyclobutyl)phenyl)benzamide] | 1.84 | 182
14 | O=C(Nc1cccc(Cl)c1)c1ccc(C2(c3nc4ncc(C(F)(F)F)cc4[nH]3)CCC2)cc1 [Example 27, N-(3-chlorophenyl)-4-(1-(6-(trifluoromethyl)-1H-imidazo[4,5-b]pyridin-2-yl)cyclobutyl)benzamide] | 1.48 | 169
15 | Cc1cc(C2CC2)ncc1-c1ccc(C2(c3nc4ncc(C#N)cc4[nH]3)CCC2)cc1 [Example 39, 2-(1-(4-(6-Cyclopropyl-4-methylpyridin-3-yl)phenyl)cyclobutyl)-1H-imidazo[4,5-b]pyridine-6-carbonitrile] | 3.6 | 182
16 | Cc1cc(OC(F)F)nc(C)c1-c1ccc(C2(c3nc4cc(C(F)(F)F)cnc4[nH]3)COC2)cc1 [Example 42, 2-(3-{4-[6-(difluoromethoxy)-2,4-dimethylpyridin-3-yl]phenyl}oxetan-3-yl)-6-(trifluoromethyl)-3H-imidazo[4,5-b]pyridine] | 2.16 | 445
17 | COc1cc(C)c(-c2ccc(C3(c4nc5cc(C(F)(F)F)cnc5[nH]4)COC3)cc2)c(C)n1 [Example 43, 2-{3-[4-(6-methoxy-2,4-dimethylpyridin-3-yl)phenyl]oxetan-3-yl}-6-(trifluoromethyl)-3H-imidazo[4,5-b]pyridine] | 2.81 | 606
18 | Cc1cc(OC(F)F)ncc1-c1ccc(C2(c3nc4cc(C(F)(F)F)cnc4[nH]3)COC2)cc1 [Example 44, 2-(3-{4-[6-(difluoromethoxy)-4-methylpyridin-3-yl]phenyl}oxetan-3-yl)-6-(trifluoromethyl)-3H-imidazo[4,5-b]pyridine] | 2.22 | 1660
19 | OCc1cc(C(F)(F)F)ncc1-c1ccc(C2(c3nc4cc(C(F)(F)F)cnc4[nH]3)COC2)cc1 [Example 45, [2-(trifluoromethyl)-5-(4-{3-[6-(trifluoromethyl)-3H-imidazo[4,5-b]pyridin-2-yl]oxetan-3-yl}phenyl)pyridin-4-yl]methanol] | 15.4 | 2700
20 | OCc1cc(C(F)(F)F)ncc1-c1ccc(C2(c3nc4ncc(Cl)cc4[nH]3)CCC2)cc1 [Example 46, [5-{4-[1-(6-chloro-1H-imidazo[4,5-b]pyridin-2-yl)cyclobutyl]phenyl}-2-(trifluoromethyl)pyridin-4-yl]methanol] | 2.28 | 238
21 | OCc1cc(OC(F)F)ncc1-c1ccc(C2(c3nc4cc(Cl)ccc4[nH]3)CCC2)cc1 [Example 47, [5-{4-[1-(5-chloro-1H-benzimidazol-2-yl)cyclobutyl]phenyl}-2-(difluoromethoxy)pyridin-4-yl]methanol] | 3.94 | 191
